Results as given in patent US6777412B2 (priority 1990, dated 2004).
Like-named read-outs stand apart in the source and are kept apart here. Marks after values point to notes of the source that are not given here.

Experiments:
Assay type in all cases: in vivo
Septoria nodorum = experiment: Foliar fungal disease test on plants: Septoria nodorum (Sn)
Procedure: (§1) The compounds were tested against a variety of foliar fungal diseases of plants. The technique employed was as follows.
(§2) The plants were grown in John Innes Potting Compost (No.1 or 2) in 4 cm diameter minipots. The test compounds were formulated either by bead milling with aqueous Dispersol T or as a solution in acetone or acetone/ethanol which was diluted to the required concentration immediately before use. For the foliage diseases, the formulations (100 ppm active ingredient except where otherwise indicated) were sprayed onto the foliage and applied to the roots of the plants in the soil. The sprays were applied to maximum retention and the root drenches to a final concentration equivalent to approximately 40 ppm a.i. in dry soil. Tween 20, to give a final concentration of 0.05%, was added when the sprays were applied to cereals.
(§3) For most of the tests the compound was applied to the soil (roots) and to the foliage (by spraying) one or two days before the plant was inoculated with the disease. An exception was the test on Erysiphe graminis in which the plants were inoculated 24 hours before treatment. Foliar pathogens were applied by spray as spore suspensions onto the leaves of test plants. After inoculation, the plants were put into an appropriate environment to allow infection to proceed and then incubated until the disease was ready for assessment. The period between inoculation and assessment varied from four to fourteen days according to the disease and environment.
(§4) The disease control vas recorded by the following grading:
(§5) 3=trace-5% of disease on untreated plants
(§6) 2=6-25% of disease on untreated plants
(§7) 1=26-59% of disease on untreated plants
(§8) 0=60-100% of disease on untreated plants

[1] = system: Phytophthora infestans lycopersici
Plasmopara viticola = experiment: Foliar fungal disease test on plants: Plasmopara viticola (Pv)
Procedure: as §1, §2, §3, §4, §5, §6, §7, §8

[2] = system: Erysiphe graminis tritici; experiment: Foliar fungal disease test on plants: Erysiphe graminis tritici (Egt)
Procedure: as §1, §2, §3, §4, §5, §6, §7, §8
Egt Erysiphe graminis tritici

Pyricularia oryzae = system: Pyricularia oryzae
Puccinia recondita = experiment: Foliar fungal disease test on plants: Puccinia recondita (Pr)
Procedure: as §1, §2, §3, §4, §5, §6, §7, §8

Venturia inaequalis = experiment: Foliar fungal disease test on plants: Venturia inaequalis (Vi)
Procedure: as §1, §2, §3, §4, §5, §6, §7, §8

[3] = 100 ppm active ingredient foliar spray plus root drench (approx. 40 ppm a.i. in dry soil), one or two days before inoculation
[4] = 100 ppm active ingredient foliar spray plus root drench (approx. 40 ppm a.i. in dry soil), plants inoculated 24 hours before treatment

Row | SMILES | disease control grading, Sn (Septoria nodorum) (Septoria nodorum; [3]) | disease control grading, Pil (Phytophthora infestans lycopersici) [1, 3] | disease control grading, Pv (Plasmopara viticola) (Plasmopara viticola; [3]) | disease control grading, Egt (Erysiphe graminis tritici) [2, 4] | disease control grading, Po (Pyricularia oryzae) (Pyricularia oryzae; [3]) | disease control grading, Pr (Puccinia recondita) (Puccinia recondita; [3]) | disease control grading, Vi (Venturia inaegualis) (Venturia inaequalis; [3]) | disease control grading, Sn (Septoria nodorum) (Septoria nodorum; 10 ppm foliar application only) | disease control grading, Pil (Phytophthora infestans lycopersici) ([1]; 10 ppm foliar application only) | disease control grading, Pv (Plasmopara viticola) (Plasmopara viticola; 10 ppm foliar application only) | disease control grading, Egt (Erysiphe graminis tritici) ([2]; 10 ppm foliar application only) | disease control grading, Po (Pyricularia oryzae) (Pyricularia oryzae; 10 ppm foliar application only) | disease control grading, Pr (Puccinia recondita) (Puccinia recondita; 10 ppm foliar application only) | disease control grading, Vi (Venturia inaegualis) (Venturia inaequalis; 10 ppm foliar application only) | disease control grading, Pr (Puccinia recondita) (Puccinia recondita; 100 ppm foliar application only)
1 | CO/C=C(/C(=O)OC)c1ccccc1Oc1cc(Cc2ccccc2)ncn1 [9 of Table I] | 4 (4=no disease) | 4 (4=no disease) | 4 (4=no disease) | 4 (4=no disease) | 4 (4=no disease) | 0 (0=60-100% of disease on untreated plants) | 4 (4=no disease) | – | – | – | – | – | – | – | –
2 | CO/C=C(/C(=O)OC)c1ccccc1Oc1cc(OCc2ccccn2)ncn1 [222 of Table I] | 3 (3=trace-5% of disease on untreated plants) | 0 (0=60-100% of disease on untreated plants) | 4 (4=no disease) | 4 (4=no disease) | 4 (4=no disease) | 4 (4=no disease) | 4 (4=no disease) | – | – | – | – | – | – | – | –
3 | CO/C=C(/C(=O)OC)c1ccccc1Oc1cc(OCc2cccnc2)ncn1 [229 of Table I] | 4 (4=no disease) | 3 (3=trace-5% of disease on untreated plants) | 4 (4=no disease) | 4 (4=no disease) | 4 (4=no disease) | 4 (4=no disease) | 4 (4=no disease) | – | – | – | – | – | – | – | –
4 | CO/C=C(/C(=O)OC)c1ccccc1Oc1cc(OCc2ccncc2)ncn1 [236 of Table I] | 3 (3=trace-5% of disease on untreated plants) | 4 (4=no disease) | 4 (4=no disease) | 3 (3=trace-5% of disease on untreated plants) | 2 (2=6-25% of disease on untreated plants) | 4 (4=no disease) | 4 (4=no disease) | – | – | – | – | – | – | – | –
5 | CO/C=C(/C(=O)OC)c1ccccc1Oc1cc(OCc2cccnn2)ncn1 [271 of Table I] | 2 (2=6-25% of disease on untreated plants) | 2 (2=6-25% of disease on untreated plants) | 0 (0=60-100% of disease on untreated plants) | 3 (3=trace-5% of disease on untreated plants) | 2 (2=6-25% of disease on untreated plants) | 4 (4=no disease) | 0 (0=60-100% of disease on untreated plants) | – | – | – | – | – | – | – | –
6 | CO/C=C(/C(=O)OC)c1ccccc1Oc1cc(OC/C=C/c2ccccc2C#N)ncn1 [395 of Table I] | 3 (3=trace-5% of disease on untreated plants) | – | 4 (4=no disease) | 4 (4=no disease) | 4 (4=no disease) | 4 (4=no disease) | 4 (4=no disease) | – | – | – | – | – | – | – | –
7 | CO/C=C(/C(=O)OC)c1ccccc1Oc1cc(OCCOc2ccccc2C#N)ncn1 [396 of Table I] | 4 (4=no disease) | – | 4 (4=no disease) | 4 (4=no disease) | 4 (4=no disease) | 4 (4=no disease) | 3 (3=trace-5% of disease on untreated plants) | – | – | – | – | – | – | – | –
8 | CO/C=C(/C(=O)OC)c1ccccc1Oc1cc(OCCOc2c(F)cccc2C#N)ncn1 [397 of Table I] | 3 (3=trace-5% of disease on untreated plants) | 3 (3=trace-5% of disease on untreated plants) | 4 (4=no disease) | 4 (4=no disease) | 4 (4=no disease) | 4 (4=no disease) | 4 (4=no disease) | – | – | – | – | – | – | – | –
9 | CO/C=C(/C(=O)OC)c1ccccc1Oc1cc(-c2sc(-c3ccccc3O)nc2C)ncn1 [399 of Table I] | – | – | – | – | – | – | – | 0^a (0=60-100% of disease on untreated plants) | 0^a (0=60-100% of disease on untreated plants) | 4^a (4=no disease) | 0^a (0=60-100% of disease on untreated plants) | 0^a (0=60-100% of disease on untreated plants) | 0^a (0=60-100% of disease on untreated plants) | 3^a (3=trace-5% of disease on untreated plants) | –
10 | CO/C=C(/C(=O)OC)c1ccccc1Oc1cc(-c2c(N)oc3ccccc23)ncn1 [400 of Table I] | 4 (4=no disease) | 4 (4=no disease) | 4 (4=no disease) | 4 (4=no disease) | 0 (0=60-100% of disease on untreated plants) | 4 (4=no disease) | 4 (4=no disease) | – | – | – | – | – | – | – | –
11 | CCOc1ccccc1Nc1cc(Oc2ccccc2/C(=C\OC)C(=O)OC)ncn1 [401 of Table I] | 4 (4=no disease) | 3 (3=trace-5% of disease on untreated plants) | 4 (4=no disease) | 4 (4=no disease) | 0 (0=60-100% of disease on untreated plants) | 4 (4=no disease) | 4 (4=no disease) | – | – | – | – | – | – | – | –
12 | CCCCOc1ccccc1Nc1cc(Oc2ccccc2/C(=C\OC)C(=O)OC)ncn1 [402 of Table I] | 4 (4=no disease) | 3 (3=trace-5% of disease on untreated plants) | 4 (4=no disease) | 4 (4=no disease) | 0 (0=60-100% of disease on untreated plants) | 4 (4=no disease) | 4 (4=no disease) | – | – | – | – | – | – | – | –
13 | CO/C=C(/C(=O)OC)c1ccccc1Oc1cc(O/N=C(\C)c2ccccc2)ncn1 [403 of Table I] | – | – | – | – | – | – | – | 0^a (0=60-100% of disease on untreated plants) | 1^a (1=26-59% of disease on untreated plants) | 4^a (4=no disease) | 0^a (0=60-100% of disease on untreated plants) | 0^a (0=60-100% of disease on untreated plants) | – | 4^a (4=no disease) | 4^b (4=no disease)
14 | CO/C=C(/C(=O)OC)c1ccccc1Oc1cc(O/N=C(\C)c2cnccn2)ncn1 [404 of Table I] | 3 (3=trace-5% of disease on untreated plants) | 1 (1=26-59% of disease on untreated plants) | 4 (4=no disease) | 4 (4=no disease) | 3 (3=trace-5% of disease on untreated plants) | 4 (4=no disease) | 4 (4=no disease) | – | – | – | – | – | – | – | –
15 | CO/C=C(/C(=O)OC)c1ccccc1Oc1cc(OCc2ccc(F)cc2)ncn1 [405 of Table I] | 0 (0=60-100% of disease on untreated plants) | 4 (4=no disease) | 4 (4=no disease) | 4 (4=no disease) | 4 (4=no disease) | 4 (4=no disease) | 4 (4=no disease) | – | – | – | – | – | – | – | –
16 | CO/C=C(/C(=O)OC)c1ccccc1Oc1cc(Sc2nc3ccccc3s2)ncn1 [530 of Table I] | 4 (4=no disease) | 4 (4=no disease) | 4 (4=no disease) | 4 (4=no disease) | 0 (0=60-100% of disease on untreated plants) | 3 (3=trace-5% of disease on untreated plants) | 4 (4=no disease) | – | – | – | – | – | – | – | –
